Measured values taken from PubChem BioAssay AID2060887 (Molecular Pharmacology Branch, DTP, NCI, 2025).

Test system: 782815-120-R-J1-PDC complex spheroid viability
Assay: Anticancer human tumor 782815-120-R-J1-PDC patient-derived colon adenocarcinoma cell line growth inhibition [RAS]
Conditions: for IC50: curve of first compound; for viability, T/C: stronger effect = lower value
Description: RAS pathway inhibitors in Combinations in Complex Spheroids
A high-throughput screen of multi-cell type tumor spheroids was designed to identify active combinations of RAS pathway inhibitors and targeted small molecules. Complex spheroids include a stromal component modeled by human endothelial cells (HUVEC) and fibroblasts modeled by human mesenchymal stem cells (MSCs). The concentration ranges selected for each drug and investigational agent were based upon clinically achievable concentrations if the clinical Cmax of the agent was known.
Compounds. The drugs and investigational agents: abemaciclib (NSC768073), cobimetinib (NSC768068), divarasib (GDC6063, NSC841802), docetaxel (NSC628503), GDC-1971 (RLY-1971, NSC841576), gemcitabine (NSC613327), inavolisib (NSC800729), ipatasertib (NSC767898), KB-0742 (NSC834161), MRTX-1133 (NSC836407), osimertinib (NSC779217), RMC-4630 (NSC839698), RMC-6236 (NSC851965), RMC-6291 (NSC852671), Ro-3306 (NSC812927), sapanisertib (NSC764658), SN-38 (NSC673596), staurosporine (NSC755774), SY5609 (NSC837396), and tovorafenib (DAY101, NSC766906), were obtained from the National Cancer Institute (NCI) Developmental Therapeutics Program Chemical Repository. The FDA-approved anticancer drug set is available from the NCI Developmental Therapeutics Program. […] The stock solutions were prepared in dimethyl sulfoxide (DMSO, Sigma-Aldrich, St. Louis, MO, cat. D2650) at 800-fold the tested concentration and stored at -70 degrees C prior to their use. All drugs and investigational agents were tested over a range starting from a high concentration at or near the clinical Cmax and decreasing in half-log increments. If the clinical Cmax for an agent had not been determined, the highest concentration tested was 10 microM.
Cell Culture. All cells were maintained in an incubator at 37 degrees C and 5% CO2 with 95% humidity. The PDC lines were cultured according to standard operating procedures established by the NCI PDMR. All PDCs were thawed and cultured in Matrigel-coated flasks prepared with a working solution of 1X Ham's F-12 nutrient mix, without supplementation (Invitrogen, Waltham, MA, cat. 11765054), 100 U/mL penicillin-streptomycin (Invitrogen, cat. 15140122), and 2.5% Matrigel (Corning Inc., Corning, NY, cat. 354248) for the first three passages. The 362531-283-R-J2-PDC and 782815-120-R-J1-PDC lines were cultured in 6C/Colon 1B media, which includes advanced DMEM/F-12 (Thermo Fisher Scientific, cat. 12634028), 10 mM HEPES (Thermo Fisher Scientific, cat. 15630080), 1X GlutaMAX supplement (Thermo Fisher Scientific, cat. 35050061), 0.1 mg/mL primocin (InvivoGen, San Diego, CA, cat. ant-pm-2), 10% defined fetal bovine serum, heat inactivated (HyClone Laboratories Inc., Logan, UT, cat. SH30070.03HI), 50% L-WRN conditioned media (ATCC, cat. CRL-3276), 1.25 mM N-Acetyl-L-cysteine (Sigma-Aldrich, cat. A9165), 10 mM nicotinamide (Sigma-Aldrich, cat. N0636), 1X B-27 supplement (Thermo Fisher Scientific, cat. 17504044), 1X N-2 supplement (Thermo Fisher Scientific, cat. 17502048), 50 ng/mL human EGF (Thermo Fisher Scientific, cat. PHG0311), and 10 microM Y-27632 dihydrochloride (Tocris Bioscience, cat. 1254). The K12877-001-R-J1-PDC line was cultured in 6I media, which includes all 6C/Colon 1B media plus 10 ng/mL human FGF-10 (PeproTech, cat. 100-26), 1 ng/mL human FGF-2 (PeproTech, cat. 100-18B), 1 µM prostaglandin E2 (Tocris Bioscience, cat. 2296), […] hydrocortisone (Sigma-Aldrich, cat. H4001), and […] bovine insulin (Sigma-Aldrich, cat. I6634). The K86415-001-R-J1-PDC line was cultured in 6D media, which includes all 6C/Colon 1B media components minus the L-WRN conditioned media. The 485176-168-R4-J1-PDC was cultured in PANC media, which includes all 6C/Colon 1B media plus 100 ng/mL human FGF-10 (PeproTech, cat. 100-26), 500 nM SB-431542 (Selleckchem, cat. S1067), and 10 nM gastrin (Tocris Bioscience, cat. 3006). […]

[1] = second compound 0.000949 µM, first compound 0.0316 µM
[2] = second compound 0.000949 µM, first compound 0.1 µM
[3] = second compound 0.000949 µM, first compound 0.316 µM
[4] = second compound 0.000949 µM, first compound 1 µM
[5] = second compound 0.000949 µM, first compound 3.16 µM
[6] = second compound 0.000949 µM, first compound 10 µM
[7] = second compound 0.003 µM, first compound 0.0316 µM
[8] = second compound 0.003 µM, first compound 0.1 µM
[9] = second compound 0.003 µM, first compound 0.316 µM
[10] = second compound 0.003 µM, first compound 1 µM
[11] = second compound 0.003 µM, first compound 3.16 µM
[12] = second compound 0.003 µM, first compound 10 µM
[13] = second compound 0.00949 µM, first compound 0.0316 µM
[14] = second compound 0.00949 µM, first compound 0.1 µM
[15] = second compound 0.00949 µM, first compound 0.316 µM
[16] = second compound 0.00949 µM, first compound 1 µM
[17] = second compound 0.00949 µM, first compound 3.16 µM
[18] = second compound 0.00949 µM, first compound 10 µM
[19] = second compound 0.03 µM, first compound 0.0316 µM
[20] = second compound 0.03 µM, first compound 0.1 µM
[21] = second compound 0.03 µM, first compound 0.316 µM
[22] = second compound 0.03 µM, first compound 1 µM
[23] = second compound 0.03 µM, first compound 3.16 µM
[24] = second compound 0.03 µM, first compound 10 µM
[25] = second compound 0.0949 µM, first compound 0.0316 µM
[26] = second compound 0.0949 µM, first compound 0.1 µM
[27] = second compound 0.0949 µM, first compound 0.316 µM
[28] = second compound 0.0949 µM, first compound 1 µM
[29] = second compound 0.0949 µM, first compound 3.16 µM
[30] = second compound 0.0949 µM, first compound 10 µM
[31] = second compound 0.3 µM, first compound 0.0316 µM
[32] = second compound 0.3 µM, first compound 0.1 µM
[33] = second compound 0.3 µM, first compound 0.316 µM
[34] = second compound 0.3 µM, first compound 1 µM
[35] = second compound 0.3 µM, first compound 3.16 µM
[36] = second compound 0.3 µM, first compound 10 µM
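Further: spheroids exposed to compounds for 7 days before reading.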
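Wherever viability, T/C is given: 100% = DMSO vehicle control viability.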

CC1(O)CCCC1n1c(=O)c(C(F)F)cc2cnc(NC3CCN(S(C)(=O)=O)CC3)nc21 (centres undefined) + CCn1c(-c2cccnc2C(C)OC)c2c3cc(ccc31)N1CCOC(CC(NC(=O)C(C(C)C)N(C)C(=O)C3(F)CCN(C(=O)C#CC(C)(C)N(C)C)CC3)C(=O)N3CCCC(N3)C(=O)OCC(C)(C)C2)C1
IC50 (second compound 0.000949 µM): 4.5 µM | IC50 (second compound 0.003 µM): 4.63 µM | IC50 (second compound 0.00949 µM): 4.04 µM | IC50 (second compound 0.03 µM): 4.5 µM | IC50 (second compound 0.0949 µM): 4.86 µM | IC50 (second compound 0.3 µM): 4.29 µM | viability, T/C [1]: 61.7% | viability, T/C [2]: 57.9% | viability, T/C [3]: 65.8% | viability, T/C [4]: 63% | viability, T/C [5]: 61.5% | viability, T/C [6]: 23.8% | viability, T/C [7]: 63.4% | viability, T/C [8]: 64.5% | viability, T/C [9]: 63.5% | viability, T/C [10]: 54.9% | viability, T/C [11]: 65.2% | viability, T/C [12]: 25.2% | viability, T/C [13]: 57.6% | viability, T/C [14]: 55.1% | viability, T/C [15]: 64.3% | viability, T/C [16]: 70.3% | viability, T/C [17]: 55% | viability, T/C [18]: 24% | viability, T/C [19]: 69.3% | viability, T/C [20]: 53.7% | viability, T/C [21]: 69.1% | viability, T/C [22]: 61.9% | viability, T/C [23]: 61.3% | viability, T/C [24]: 24.8% | viability, T/C [25]: 67% | viability, T/C [26]: 59.5% | viability, T/C [27]: 70.3% | viability, T/C [28]: 65.2% | viability, T/C [29]: 71.1% | viability, T/C [30]: 22% | viability, T/C [31]: 66.7% | viability, T/C [32]: 50.9% | viability, T/C [33]: 58% | viability, T/C [34]: 69.2% | viability, T/C [35]: 61.5% | viability, T/C [36]: 18.7%

C[C@@H](NC(=O)c1ncnc(N)c1Cl)c1ncc(C(=O)Nc2cc(C(F)(F)F)c(Cl)cn2)s1 + CCn1c(-c2cc(N3CCN(C)CC3)cnc2C(C)OC)c2c3cc(ccc31)-c1csc(n1)CC(NC(=O)C1CC1C)C(=O)N1CCCC(N1)C(=O)OCC(C)(C)C2
IC50 (second compound 0.000949 µM): > 10 µM | IC50 (second compound 0.003 µM): > 10 µM | IC50 (second compound 0.00949 µM): < 0.0316 µM | IC50 (second compound 0.03 µM): < 0.0316 µM | IC50 (second compound 0.0949 µM): < 0.0316 µM | IC50 (second compound 0.3 µM): < 0.0316 µM | viability, T/C [1]: 82.2% | viability, T/C [2]: 95.5% | viability, T/C [3]: 76.9% | viability, T/C [4]: 73.4% | viability, T/C [5]: 58.8% | viability, T/C [6]: 66.8% | viability, T/C [7]: 74.1% | viability, T/C [8]: 69.4% | viability, T/C [9]: 62.9% | viability, T/C [10]: 60.5% | viability, T/C [11]: 55.1% | viability, T/C [12]: 54.7% | viability, T/C [13]: 47.9% | viability, T/C [14]: 50.3% | viability, T/C [15]: 47.7% | viability, T/C [16]: 46.6% | viability, T/C [17]: 47% | viability, T/C [18]: 44.6% | viability, T/C [19]: 25.8% | viability, T/C [20]: 33% | viability, T/C [21]: 32% | viability, T/C [22]: 31.9% | viability, T/C [23]: 37.6% | viability, T/C [24]: 35.9% | viability, T/C [25]: 19.7% | viability, T/C [26]: 23.8% | viability, T/C [27]: 25.3% | viability, T/C [28]: 27.1% | viability, T/C [29]: 30.8% | viability, T/C [30]: 27.6% | viability, T/C [31]: 18.6% | viability, T/C [32]: 20.7% | viability, T/C [33]: 23.1% | viability, T/C [34]: 21.9% | viability, T/C [35]: 26.4% | viability, T/C [36]: 27.9%
